In patent publication US4193997A, “Thieno[2,3-c] and [3,2-c]pyridines, process for their preparation and therapeutic applications thereof” (Parcor, priority 1977, dated 1980):

Experiments:
[1] = system: collagen-induced blood-platelet aggregation; assay: Collagen-induced blood-platelet aggregation after oral treatment of rats; format: in vivo, Wistar rats; conditions: Rattus norvegicus, 100 mg/kg oral, 3 hrs after treatment, collagen (bovine tendon extract), read-out: Percent inhibition of blood-platelet aggregation, Collagen
Experimental: (§1) Blood is taken from the jugular vein of Wistar rats. From this citrated blood, and after centrifugation, a plasma containing 600,000±20,000 blood-platelets per mm 3 is reconstituted, which plasma is used in all aggregation determinations.
(§2) 0.4 ml plasma is placed in a siliconized tube provided with a magnet bar which is also siliconized. The tube is introduced into an aggregometer connected to an apparatus which records the optical density variations. When light transmission reaches a stable value, 0.5 ml of a solution containing 10 μM A.D.P. (adenosine diphosphate) is introduced into the tube.
The A.D.P. solution is substituted with a collagen solution (bovine tendon extract).
(§3) Different groups of 20 rats each are used. Each group is orally administered a test derivative, at a dosage of 100 mg/kg. The results obtained during both tests are reported in following Table I which indicates the percent inhibition of blood-platelet aggregation obtained with respect to the reference group, 3 hrs after treatment.

[2] = system: A.D.P.-induced blood-platelet aggregation; assay: A.D.P.-induced blood-platelet aggregation after oral treatment of rats; format: in vivo, Wistar rats; conditions: Rattus norvegicus, 100 mg/kg oral, 3 hrs after treatment, 10 μM A.D.P. solution, read-out: Percent inhibition of blood-platelet aggregation, A.D.P.
Experimental: as §1, §2
Blood-platelet aggregation then induces an increase of light transmission, followed by a decrease subsequent to the disaggregation stage.
The maximal optical density variation thus determined characterizes the extent of the aggregation.
as §3

Red blood cells [3] = assay: Anti-sludge in vitro, "preventive" treatment (protamine sulfate agglomeration of red blood cells); format: cell-based, rats; conditions: for percent agglomerates formed by 5 RBC: controls 6 or 8; for percent agglomerates formed by 4 RBC: controls 9 or 8; for percent agglomerates formed by 3 RBC: controls 13 or 14; for percent agglomerates formed by 2 RBC: controls 17 or 16; for percent free red blood cells (size 1): controls 32 (n°3, 4, 6) or 30 (n°11, 12, 17)
Experimental: (§4) Red blood cells of rats are washed three times and diluted to 1/250 concentration in physiological saline. In each of 5 tubes are placed 0.6 ml of this suspension and 0.2 ml physiological saline. Into each tube is then added, respectively, an amount of 0, 25, 50, 100 and 200 μg of the test derivative contained in 0.2 ml of solution. After incubation for one hour at 37° C., 0.2 ml of a solution containing 125 μg/ml protamine sulfate is added thereto, and the resulting material is further incubated for 0.5 hour at 37° C. The red blood cells of each tube are then examined with a Mallasez cell, and the percent free red blood cells (RBC) and the percent agglomerates formed by 2, 3, 4, 5 . . . RBC are noted.

Red blood cells [4] = assay: Anti-sludge in vitro, "curative" procedure (protamine sulfate agglomeration of red blood cells); format: cell-based, rats; conditions: 25 μg; for percent aggregates, size of agglomerates 4: reference tests 11; for percent aggregates, size of agglomerates 3: reference tests 15 or 16; for percent aggregates, size of agglomerates 2: reference tests 19; for percent aggregates, size of agglomerates 1: reference tests 33 (n°3, 4, 6) or 30 (n°11, 12, 17)
Experimental: as §4
The test was repeated according to a "curative" procedure. The red blood cells were first contacted with the protamine sulfate and, after incubation for 0.5 hour, 0.2 ml containing 25 μg of the test derivative were added thereto, after which the material was further incubated for one hour at 37° C.

Compound: COc1cc(CN2C(=O)c3ccsc3CC2C(=O)O)cc(OC)c1OC (stereo not shown) [Derivative n°16, 4-Oxo-6-carboxy-5-(3,4,5-trimethoxy-benzyl)-4,5,6,7-tetrahydro-thieno[3,2-c]pyridine]
- inhibition at 100 mg/kg [1]: 90.5%
- inhibition at 100 mg/kg [2]: 62.4%

Compound: N#Cc1ccccc1CN1CCc2sccc2C1=O [Derivative n°8, 4-Oxo-5-o.cyanobenzyl-4,5,6,7-tetrahydro-thieno[3,2-c]pyridine]
- inhibition at 100 mg/kg [1]: 91%
- inhibition at 100 mg/kg [2]: 60.8%

Compound: O=C(OCc1ccccc1)C1Cc2sccc2C(=O)N1Cc1ccccc1 (stereo not shown) [Derivative n°13, 4-Oxo-6-benzyloxycarbonyl-5-benzyl-4,5,6,7-tetrahydro-thieno[3,2-c]pyridine]
- inhibition at 100 mg/kg [1]: 91.9%
- inhibition at 100 mg/kg [2]: 63.4%

Compound: O=C1NCC(c2ccccc2)c2ccsc21 (stereo not shown) [Derivative n°18, 4-Phenyl-7-oxo-4,5,6,7-tetrahydro-thieno[2,3-c]pyridine]
- inhibition at 100 mg/kg [1]: 91.4%
- inhibition at 100 mg/kg [2]: 60.6%

Compound: COC(=O)c1ccccc1CN1CCc2sccc2C1=O [Derivative n°9, 4-Oxo-5-o,carbomethoxybenzyl-4,5,6,7-tetrahydro-thieno[3,2-c]-pyridine]
- inhibition at 100 mg/kg [1]: 90.8%
- inhibition at 100 mg/kg [2]: 61.6%

Compound: O=C(c1ccccc1Cl)N1CCc2ccsc2C1=O [Derivative n°10, 6-o.Chlorobenzoyl-7-oxo-4,5,6,7-tetrahydro-thieno[2,3-c]pyridine]
- inhibition at 100 mg/kg [1]: 92.2%
- inhibition at 100 mg/kg [2]: 60.9%

Compound: O=C1c2ccsc2CCN1Cc1ccc(Cl)cc1 [Derivative n°3, 4-Oxo-5-p.chlorobenzyl-4,5,6,7-tetrahydro-thieno[3,2-c]pyridine]
- percent agglomerates formed by 5 RBC (Red blood cells [3]; 25 μg per tube): 1%
- percent agglomerates formed by 4 RBC (Red blood cells [3]; 25 μg per tube): 2%
- percent agglomerates formed by 3 RBC (Red blood cells [3]; 25 μg per tube): 10%
- percent agglomerates formed by 2 RBC (Red blood cells [3]; 25 μg per tube): 24%
- percent free red blood cells (size 1) (Red blood cells [3]; 25 μg per tube): 63%
- percent agglomerates formed by 4 RBC (Red blood cells [3]; 50 μg per tube): 2%
- percent agglomerates formed by 3 RBC (Red blood cells [3]; 50 μg per tube): 7%
- percent agglomerates formed by 2 RBC (Red blood cells [3]; 50 μg per tube): 25%
- percent free red blood cells (size 1) (Red blood cells [3]; 50 μg per tube): 66%
- percent agglomerates formed by 5 RBC (Red blood cells [3]; 100 μg per tube): 1%
- percent agglomerates formed by 4 RBC (Red blood cells [3]; 100 μg per tube): 1%
- percent agglomerates formed by 3 RBC (Red blood cells [3]; 100 μg per tube): 6%
- percent agglomerates formed by 2 RBC (Red blood cells [3]; 100 μg per tube): 15%
- percent free red blood cells (size 1) (Red blood cells [3]; 100 μg per tube): 77%
- percent agglomerates formed by 4 RBC (Red blood cells [3]; 200 μg per tube): 1%
- percent agglomerates formed by 3 RBC (Red blood cells [3]; 200 μg per tube): 1%
- percent agglomerates formed by 2 RBC (Red blood cells [3]; 200 μg per tube): 10%
- percent free red blood cells (size 1) (Red blood cells [3]; 200 μg per tube): 88%
- percent aggregates, size of agglomerates 4 (Red blood cells [4]): 1%
- percent aggregates, size of agglomerates 3 (Red blood cells [4]): 5%
- percent aggregates, size of agglomerates 2 (Red blood cells [4]): 13%
- percent aggregates, size of agglomerates 1 (Red blood cells [4]): 81%
- inhibition at 100 mg/kg [1]: 91.4%
- inhibition at 100 mg/kg [2]: 60.8%

Compound: O=C(O)C1Cc2sccc2C(=O)N1Cc1ccccc1 (stereo not shown) [Derivative n°14, 4-Oxo-6-carboxy-5-benzyl-4,5,6,7-tetrahydro-thieno[3,2-c]-pyridine]
- inhibition at 100 mg/kg [1]: 93%
- inhibition at 100 mg/kg [2]: 60.5%

Compound: O=C1c2sccc2CCN1Cc1ccccc1Cl [Derivative n°4, 6-o.Chlorobenzyl-7-oxo-4,5,6,7-tetrahydro-thieno[2,3-c]-pyridine]
- percent agglomerates formed by 5 RBC (Red blood cells [3]; 25 μg per tube): 2%
- percent agglomerates formed by 4 RBC (Red blood cells [3]; 25 μg per tube): 3%
- percent agglomerates formed by 3 RBC (Red blood cells [3]; 25 μg per tube): 7%
- percent agglomerates formed by 2 RBC (Red blood cells [3]; 25 μg per tube): 20%
- percent free red blood cells (size 1) (Red blood cells [3]; 25 μg per tube): 68%
- percent agglomerates formed by 5 RBC (Red blood cells [3]; 50 μg per tube): 1%
- percent agglomerates formed by 4 RBC (Red blood cells [3]; 50 μg per tube): 2%
- percent agglomerates formed by 3 RBC (Red blood cells [3]; 50 μg per tube): 4%
- percent agglomerates formed by 2 RBC (Red blood cells [3]; 50 μg per tube): 22%
- percent free red blood cells (size 1) (Red blood cells [3]; 50 μg per tube): 71%
- percent agglomerates formed by 4 RBC (Red blood cells [3]; 100 μg per tube): 2%
- percent agglomerates formed by 3 RBC (Red blood cells [3]; 100 μg per tube): 1%
- percent agglomerates formed by 2 RBC (Red blood cells [3]; 100 μg per tube): 17%
- percent free red blood cells (size 1) (Red blood cells [3]; 100 μg per tube): 80%
- percent agglomerates formed by 3 RBC (Red blood cells [3]; 200 μg per tube): 1%
- percent agglomerates formed by 2 RBC (Red blood cells [3]; 200 μg per tube): 8%
- percent free red blood cells (size 1) (Red blood cells [3]; 200 μg per tube): 91%
- percent aggregates, size of agglomerates 5 (Red blood cells [4]; reference tests 8 or 9): 1%
- percent aggregates, size of agglomerates 4 (Red blood cells [4]): 1%
- percent aggregates, size of agglomerates 3 (Red blood cells [4]): 3%
- percent aggregates, size of agglomerates 2 (Red blood cells [4]): 17%
- percent aggregates, size of agglomerates 1 (Red blood cells [4]): 78%
- inhibition at 100 mg/kg [1]: 93.1%
- inhibition at 100 mg/kg [2]: 62.9%

Compound: O=C1c2ccsc2CCN1Cc1ccccc1Cl [Derivative n°1, 4-Oxo-5-o.chlorobenzyl-4,5,6,7-tetrahydro-thieno[3,2-c]pyridine]
- inhibition at 100 mg/kg [1]: 90%
- inhibition at 100 mg/kg [2]: 60.4%

Compound: O=C(c1ccccc1Cl)N1CCc2sccc2C1=O [Derivative n°6, 4-Oxo-5-o.chlorobenzoyl-4,5,6,7-tetrahydro-thieno[3,2-c]pyridine]
- percent agglomerates formed by 5 RBC (Red blood cells [3]; 25 μg per tube): 4%
- percent agglomerates formed by 4 RBC (Red blood cells [3]; 25 μg per tube): 5%
- percent agglomerates formed by 3 RBC (Red blood cells [3]; 25 μg per tube): 4%
- percent agglomerates formed by 2 RBC (Red blood cells [3]; 25 μg per tube): 22%
- percent free red blood cells (size 1) (Red blood cells [3]; 25 μg per tube): 65%
- percent agglomerates formed by 5 RBC (Red blood cells [3]; 50 μg per tube): 1%
- percent agglomerates formed by 4 RBC (Red blood cells [3]; 50 μg per tube): 3%
- percent agglomerates formed by 3 RBC (Red blood cells [3]; 50 μg per tube): 5%
- percent agglomerates formed by 2 RBC (Red blood cells [3]; 50 μg per tube): 25%
- percent free red blood cells (size 1) (Red blood cells [3]; 50 μg per tube): 66%
- percent agglomerates formed by 5 RBC (Red blood cells [3]; 100 μg per tube): 1%
- percent agglomerates formed by 4 RBC (Red blood cells [3]; 100 μg per tube): 0%
- percent agglomerates formed by 3 RBC (Red blood cells [3]; 100 μg per tube): 3%
- percent agglomerates formed by 2 RBC (Red blood cells [3]; 100 μg per tube): 13%
- percent free red blood cells (size 1) (Red blood cells [3]; 100 μg per tube): 83%
- percent agglomerates formed by 3 RBC (Red blood cells [3]; 200 μg per tube): 1%
- percent agglomerates formed by 2 RBC (Red blood cells [3]; 200 μg per tube): 8%
- percent free red blood cells (size 1) (Red blood cells [3]; 200 μg per tube): 91%
- percent aggregates, size of agglomerates 4 (Red blood cells [4]): 2%
- percent aggregates, size of agglomerates 3 (Red blood cells [4]): 2%
- percent aggregates, size of agglomerates 2 (Red blood cells [4]): 15%
- percent aggregates, size of agglomerates 1 (Red blood cells [4]): 81%
- inhibition at 100 mg/kg [1]: 91.5%
- inhibition at 100 mg/kg [2]: 61.7%
